The text below walks through data of publication PMC6905112, “CtcS, a MarR family regulator, regulates chlortetracycline biosynthesis” (BMC Microbiology, 2019).

Experiment [1] has as its target T1, CtcS (Kitasatospora aureofaciens, UniProt S4S3A4).
T1 sequence (S4S3A4 1-165): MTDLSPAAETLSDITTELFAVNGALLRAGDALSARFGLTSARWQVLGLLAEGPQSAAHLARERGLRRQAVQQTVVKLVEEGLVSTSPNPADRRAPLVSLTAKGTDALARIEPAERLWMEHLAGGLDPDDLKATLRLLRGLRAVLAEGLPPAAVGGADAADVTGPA
The experiment can be described thus: competitive EMSA, release of FAM-labelled ctcS-ctcR intergenic DNA probe. Type of experiment: binding. As to conditions: His6-CtcS 40 ng, probe 40 ng, 20 uL, pH 8.0, 0.0015-5 mM compound. Background: Mobility shift assays separate free from complexed probe on a gel.

The target in experiment [2] is His6-tagged recombinant CtcS (Streptomyces aureofaciens F3). The experiment can be described thus: SEC; Superdex 200 10/300 column, AKTA FPLC P-920; ovalbumin (44 kD) and lysozyme (14 kD) as standards; purified His6-tagged CtcS.

For the compound `CN(C)[C@@H]1C(=O)C(C(N)=O)=C(O)[C@@]2(O)C(=O)C3=C(O)c4c(O)ccc(Cl)c4[C@@](C)(O)[C@H]3C[C@@H]12` [chlortetracycline], the “competitive EMSA, release of FAM-labelled ctcS-ctcR intergenic DNA probe” value in experiment [1] is “the DNA-binding affinity of CtcS would be decreased by the presence of TC and CTC”.
The same measure, in the same setting: to `CN(C)[C@@H]1C(=O)C(C(N)=O)=C(O)[C@@]2(O)C(=O)C3=C(O)c4c(O)cccc4[C@@](C)(O)[C@H]3C[C@@H]12` [tetracycline] belongs “the DNA-binding affinity of CtcS would be decreased by the presence of TC and CTC”.
In the case of “His6-tagged recombinant CtcS (natural protein)”, the stoichiometry N (commonly a count of units in the complex or per binding partner) in experiment [2] was determined as 2.
